From PubChem BioAssay AID192 (DTP/NCI, 2004) come the findings set out here.

Several values for one entry are separate records, joined by “and”; a condition that tells them apart may be missing. Equal entries are not always repeated. Inconclusive results and toxic doses are left out.

This assay relates to BDF1 mice, B16 melanoma ip, median survival T/C. In words: NCI In Vivo Anticancer Drug Screen. Data for tumor model B16 Melanoma (intraperitoneal) in B6D2F1 (BDF1) mice. The note with it: endpoint: median survival time, higher = longer survival. In short, it runs like this: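 Mice with transplantable tumors; drug vs vehicle groups; endpoint survival or tumor size; value = T/C.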

The mark [1] stands for this setting: dose: 12.5 mg/kg/injection, schedule: Q01DX009 (ip), vehicle: Klucel (hydroxypropylcellulose) (HPC).
The mark [2] stands for this setting: dose: 100.0 mg/kg/injection, schedule: Q01DX009 (ip), vehicle: Klucel (hydroxypropylcellulose) (HPC).
[3] abbreviates: dose: 6.25 mg/kg/injection, schedule: Q01DX009 (ip), vehicle: saline.
[4] abbreviates: dose: 12.5 mg/kg/injection, schedule: Q01DX009 (ip), vehicle: saline.
[5] abbreviates: dose: 50.0 mg/kg/injection, schedule: Q01DX009 (ip), vehicle: Klucel (hydroxypropylcellulose) (HPC).
Setting [6] is: dose: 200.0 mg/kg/injection, schedule: Q01DX009 (ip), vehicle: Klucel (hydroxypropylcellulose) (HPC).
Setting [7] is: dose: 100.0 mg/kg/injection, schedule: Q01DX009 (ip), vehicle: saline with Tween-80.

`C[N+](C)(C)C.N=C=O.N=C=O.N=C=O.N=C=O.[Co+2]`: the T/C is 97 % of control (dose: 12.5 mg/kg/injection, schedule: Q04DX003 (ip), vehicle: saline with Tween-80); 90 % of control (dose: 25.0 mg/kg/injection, schedule: Q04DX003 (ip), vehicle: saline with Tween-80); 92 % of control (dose: 50.0 mg/kg/injection, schedule: Q04DX003 (ip), vehicle: saline with Tween-80).
Consider `NC(=O)c1ccc[n+](Cc2c(Cl)cccc2Cl)c1`, for which the T/C (dose: 0.75 mg/kg/injection, schedule: Q01DX009 (ip), vehicle: saline) was 99 % of control; the T/C (dose: 1.5 mg/kg/injection, schedule: Q01DX009 (ip), vehicle: saline) was 96 % of control and 102 % of control; the T/C (dose: 3.0 mg/kg/injection, schedule: Q01DX009 (ip), vehicle: saline) was 102 % of control and 111 % of control; the T/C (dose: 6.0 mg/kg/injection, schedule: Q01DX009 (ip), vehicle: saline) was 98 % of control; the T/C (dose: 12.0 mg/kg/injection, schedule: Q01DX009 (ip), vehicle: saline) is 98 % of control and 99 % of control; the T/C (dose: 24.0 mg/kg/injection, schedule: Q01DX009 (ip), vehicle: saline) is 105 % of control.
For `OC(CCN1CCCCC1)(c1ccccc1)C1CC2C=CC1C2` (stereo not given), the T/C was 96 % of control (dose: 0.19 mg/kg/injection, schedule: Q01DX009 (ip), vehicle: Klucel (hydroxypropylcellulose) (HPC)); 100 % of control (dose: 0.39 mg/kg/injection, schedule: Q01DX009 (ip), vehicle: Klucel (hydroxypropylcellulose) (HPC)); 103 % of control (dose: 0.78 mg/kg/injection, schedule: Q01DX009 (ip), vehicle: Klucel (hydroxypropylcellulose) (HPC)); 100 % of control (dose: 1.56 mg/kg/injection, schedule: Q01DX009 (ip), vehicle: Klucel (hydroxypropylcellulose) (HPC)); 115 % of control (dose: 3.12 mg/kg/injection, schedule: Q01DX009 (ip), vehicle: Klucel (hydroxypropylcellulose) (HPC)); 94 % of control (dose: 6.25 mg/kg/injection, schedule: Q01DX009 (ip), vehicle: Klucel (hydroxypropylcellulose) (HPC)). The T/C under setting [1] is 92 % of control and 96 % of control; the T/C under setting [2] was 89 % of control.
Turning to `Nc1cc(Cl)c2cccnc2c1O`, the T/C is 115 % of control (dose: 22.0 mg/kg/injection, schedule: Q01DX009 (ip), vehicle: saline); 120 % of control (dose: 33.0 mg/kg/injection, schedule: Q01DX009 (ip), vehicle: saline); 106 % of control (dose: 44.0 mg/kg/injection, schedule: Q04DX003 (ip), vehicle: saline); 106 % of control (dose: 66.0 mg/kg/injection, schedule: Q04DX003 (ip), vehicle: saline); 86 % of control (dose: 100.0 mg/kg/injection, schedule: Q04DX003 (ip), vehicle: saline).
Take `CN(Cc1cnc2nc(N)nc(N)c2n1)c1ccc(C(=O)NC(CCC(=O)O)C(=O)O)cc1Br` (stereo not given): the T/C runs as follows: (dose: 0.17 mg/kg/injection, schedule: Q01DX011 (ip), vehicle: saline) 101 % of control; (dose: 0.35 mg/kg/injection, schedule: Q01DX011 (ip), vehicle: saline) 105 % of control; (dose: 0.63 mg/kg/injection, schedule: Q01DX009 (ip), vehicle: other) 101 % of control; (dose: 0.7 mg/kg/injection, schedule: Q01DX011 (ip), vehicle: saline) 101 % of control; (dose: 1.25 mg/kg/injection, schedule: Q01DX009 (ip), vehicle: other) 113 % of control.
`CN1CCN=C(c2ccccc2)c2cc(Cl)ccc21`: the T/C under setting [3] was 117 % of control; the T/C under setting [4] is 117 % of control; the T/C (dose: 25.0 mg/kg/injection, schedule: Q01DX009 (ip), vehicle: saline) was 115 % of control; the T/C (dose: 50.0 mg/kg/injection, schedule: Q01DX009 (ip), vehicle: saline) was 106 % of control; the T/C (dose: 100.0 mg/kg/injection, schedule: Q01DX009 (ip), vehicle: saline) was 100 % of control.
In the case of `CCCCCCCCC(=O)NCCOC`, the T/C was 104 % of control under setting [5], 101 % of control under setting [2] and 101 % of control under setting [6].
In the case of `CCN(CC)CCNc1ccc(C)c2sc3ccc(O)cc3c(=O)c12`, the T/C was 110 % of control (dose: 12.5 mg/kg/injection, schedule: Q01DX009 (ip), vehicle: saline with Tween-80); 161 % of control (dose: 25.0 mg/kg/injection, schedule: Q01DX009 (ip), vehicle: saline with Tween-80); 182 % of control (dose: 50.0 mg/kg/injection, schedule: Q01DX009 (ip), vehicle: saline with Tween-80); 172 % of control under setting [7].
As for `ClCCN=Cc1ccc(Cl)cc1`, the T/C by setting is: under setting [7], 98 % of control; (dose: 200.0 mg/kg/injection, schedule: Q01DX009 (ip), vehicle: saline with Tween-80) 95 % of control; (dose: 400.0 mg/kg/injection, schedule: Q01DX009 (ip), vehicle: saline with Tween-80) 93 % of control.
With `CN(C)S(=O)(=O)Nc1cc(Cl)c(NS(=O)(=O)N(C)C)cc1Cl`, the T/C runs as follows: under setting [2], 92 % of control; under setting [6], 100 % of control; (dose: 400.0 mg/kg/injection, schedule: Q01DX009 (ip), vehicle: Klucel (hydroxypropylcellulose) (HPC)) 89 % of control.
With `C=CCCC(=O)CCCC(=O)O[C@@H]1[C@@H]2[C@H](CC1(C)C)[C@H](O)[C@@]13O[C@@H]1[C@H](O)[C@@]1(CO1)[C@@]23C`, the T/C is, setting by setting: (dose: 6.2 micrograms/kg/injection, schedule: Q01DX009 (ip), vehicle: saline) 98 % of control; (dose: 6.3 micrograms/kg/injection, schedule: Q01DX009 (ip), vehicle: Klucel (hydroxypropylcellulose) (HPC)) 107 % of control; (dose: 12.5 micrograms/kg/injection, schedule: Q01DX009 (ip), vehicle: Klucel (hydroxypropylcellulose) (HPC)) 121 % of control; (dose: 12.5 micrograms/kg/injection, schedule: Q01DX009 (ip), vehicle: saline) 97 % of control; (dose: 25.0 micrograms/kg/injection, schedule: Q01DX009 (ip), vehicle: saline) 106 % of control; (dose: 50.0 micrograms/kg/injection, schedule: Q01DX009 (ip), vehicle: Klucel (hydroxypropylcellulose) (HPC)) 91 % of control. In addition, the T/C (dose: 50.0 micrograms/kg/injection, schedule: Q01DX009 (ip), vehicle: saline) was 102 % of control.
In the case of `OCCN1CCN(CCCN2c3ccccc3Oc3ccc(C(F)(F)F)cc32)CC1`, the T/C by setting is: (dose: 0.78 mg/kg/injection, schedule: Q01DX009 (ip), vehicle: saline) 105 % of control; (dose: 1.56 mg/kg/injection, schedule: Q01DX009 (ip), vehicle: saline) 100 % of control; (dose: 3.12 mg/kg/injection, schedule: Q01DX009 (ip), vehicle: saline) 107 % of control; under setting [3], 102 % of control; under setting [4], 87 % of control.
Take `Cc1ccc(S(=O)(=O)N/N=C/C(Br)=C(/Br)C(=O)O)cc1`: the T/C by setting is: under setting [1], 111 % of control; (dose: 25.0 mg/kg/injection, schedule: Q01DX009 (ip), vehicle: Klucel (hydroxypropylcellulose) (HPC)) 113 % of control; under setting [5], 122 % of control.
